Molecular target: T1, GB1CBS(1–40) (Homo sapiens, UniProt P35520)
T1 construct: gene CBS; His6 tag cut with thrombin; E. coli BL21(DE3); full-length CBS 551 residues
T1 sequence (P35520 1-40): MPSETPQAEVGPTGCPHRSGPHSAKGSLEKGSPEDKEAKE
Assay: UV/Vis titration, Soret band at […] nm
Format: binding

Work on `C=CC1=C(C)C2=Cc3c(C=C)c(C)c4[n]3[Fe]([Cl])[n]3c(c(C)c(CCC(=O)O)c3=CC3=NC(=C4)C(C)=C3CCC(=O)O)=CC1=N2` [hemin] yielded a Kd of 2.18 ± 0.64 µM.

— article PMC5802807, “Heme interaction of the intrinsically disordered N-terminal peptide segment of human cystathionine-β-synthase” (Scientific Reports, 2018)
